Experimental data as given in patent US20250144094A1 (Erasca, Inc., priority 2021, published 2025).

Biological target: Recombinant human ULK1 (1-649) (Homo sapiens (Human), UniProt O75385)
Experiment: ULK1 ADP Glo kinase activity assay, new method (ULKtide peptide substrate)
Conditions: 25° C., 40 minutes, read-out: ULK1 biochemical IC50
Description: Recombinant human ULK1 (1-649) protein expressed in Sf9 insect cells was obtained from SignalChem (Vancouver, BC), catalog #U01-11G. Active kinase was purified via N-terminal GST tag to >85% purity.
ADP GLO Kinase Assay Reagents were obtained from Promega Corp (Madison, WI), catalog #V9104.
Synthetic peptide substrate (ULKtide) with the amino acid sequence YANWLAASIYLDGKKK was obtained from ThermoFisher Scientific USA.
ULK1 inhibitor potency was determined using the luminescent ADP Glo Kinase Assay (Promega), a universal ADP detection system that measures kinase activity by quantifying the amount of ADP produced during a kinase reaction. ULK1 kinase reactions are performed in a standard 96-well microplate (20 μL reaction volume) at 25° C. for 40 minutes in the presence or absence of the test compound (12-point dilution series starting at 10 μM). Addition of peptide substrate and ATP initiates the kinase reaction.
The standard ADP Glo assay is performed in two steps. In step one, following the kinase reaction, an equal volume of ADP-Glo™ Reagent (20 μL) is added to terminate the kinase reaction and deplete the remaining ATP. In the second step, the Kinase Detection Reagent (10 μL) is added to simultaneously convert ADP to ATP and allow the newly synthesized ATP to be measured using a luciferase/luciferin reaction. Step two of the ADP Glo assay is performed in a white 384-well plate (20 μL final volume). Thirty minutes after the addition of the Detection reagent, light generated from the luciferase reaction is measured (1 second exposure) using a microplate compatible luminometer (CLARIOstar, BMG Labtech).
Inhibition of ULK1 kinase activity is determined for each test compound by comparison to DMSO only control wells. Inhibitor IC50 was calculated by plotting the change in luminescence after 30 minutes (response) versus inhibitor concentration (in log molar) then applying the four-parameter variable slope curve fit (GraphPad Prism). Inhibition of ULK1 in biochemical assay is found in Table 4.

Sequence of Recombinant human ULK1 (1-649) (O75385 1-649): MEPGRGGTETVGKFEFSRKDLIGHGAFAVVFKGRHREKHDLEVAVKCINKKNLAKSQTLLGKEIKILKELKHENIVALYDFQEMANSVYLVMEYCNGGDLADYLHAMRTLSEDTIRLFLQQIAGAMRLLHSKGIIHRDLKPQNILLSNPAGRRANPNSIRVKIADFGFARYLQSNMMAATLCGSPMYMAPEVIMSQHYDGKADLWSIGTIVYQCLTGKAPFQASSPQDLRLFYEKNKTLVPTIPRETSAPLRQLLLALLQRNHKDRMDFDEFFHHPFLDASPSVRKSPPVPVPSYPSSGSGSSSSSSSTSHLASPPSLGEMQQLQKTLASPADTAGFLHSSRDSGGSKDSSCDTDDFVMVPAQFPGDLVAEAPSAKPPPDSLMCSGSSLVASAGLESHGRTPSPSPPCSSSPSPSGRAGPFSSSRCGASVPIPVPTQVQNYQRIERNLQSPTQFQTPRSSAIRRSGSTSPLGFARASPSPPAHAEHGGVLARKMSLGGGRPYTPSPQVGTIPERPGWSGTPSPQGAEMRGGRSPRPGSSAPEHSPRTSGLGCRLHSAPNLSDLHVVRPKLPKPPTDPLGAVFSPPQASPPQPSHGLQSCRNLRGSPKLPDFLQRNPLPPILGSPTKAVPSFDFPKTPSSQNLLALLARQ

Row | SMILES | IC50 [nM]
1 | CCN1CCN(c2ccc(Nc3ncc(C(F)(F)F)c(-c4cc5c(s4)C(=O)N(C4CC4)CCS5(=O)=O)n3)c(C3CC3)c2)CC1 [Example 255, 4-cyclopropyl-7-(2-((2-cyclopropyl-4-(4-ethylpiperazin-1-yl)phenyl)amino)-5-(trifluoromethyl)pyrimidin-4-yl)-3,4-dihydrothieno[2,3-f][1,4]thiazepin-5(2H)-one 1,1-dioxide] | ≤ 5
2 | Cc1ccc(C2CNC2)cc1Nc1ncc(C(F)(F)F)c(-c2cc(S(C)(=O)=O)cs2)n1 [Example 136, N-(5-(azetidin-3-yl)-2-methylphenyl)-4-(4-(methylsulfonyl)thiophen-2-yl)-5-(trifluoromethyl)pyrimidin-2-amine] | 50 to 100
3 | CCN1CCS(=O)(=O)c2cc(-c3nc(Nc4cc5c(cc4C4CC4)CNCC5)ncc3C(F)(F)F)sc2C1=O [Example 198, 7-(2-((7-cyclopropyl-1,2,3,4-tetrahydroisoquinolin-6-yl)amino)-5-(trifluoromethyl)pyrimidin-4-yl)-4-ethyl-3,4-dihydrothieno[2,3-f][1,4]thiazepin-5(2H)-one 1,1-dioxide] | ≤ 5
4 | CCc1cc2c(cc1Nc1ncc(C(F)(F)F)c(-c3cc4c(s3)C(=O)N(C)CCS4(=O)=O)n1)CCN(CC)C2 [Example 222, 7-(2-((2,7-diethyl-1,2,3,4-tetrahydroisoquinolin-6-yl)amino)-5-(trifluoromethyl)pyrimidin-4-yl)-4-methyl-3,4-dihydrothieno[2,3-f][1,4]thiazepin-5(2H)-one 1,1-dioxide] | ≤ 5
5 | CCN1CCS(=O)(=O)c2cc(-c3nc(Nc4cc5c(cc4Cl)CN(C)CC5)ncc3C(F)(F)F)sc2C1=O [Example 142, 7-(2-((7-chloro-2-methyl-1,2,3,4-tetrahydroisoquinolin-6-yl)amino)-5-(trifluoromethyl)pyrimidin-4-yl)-4-ethyl-3,4-dihydrothieno[2,3-f][1,4]thiazepin-5(2H)-one 1,1-dioxide] | ≤ 5
6 | CN1CC(n2cc(Nc3ncc(C(F)(F)F)c(-c4cc(S(C)(=O)=O)cs4)n3)c(C3CC3)n2)C1 [Example 145, N-(3-cyclopropyl-1-(1-methylazetidin-3-yl)-1H-pyrazol-4-yl)-4-(4-(methylsulfonyl)thiophen-2-yl)-5-(trifluoromethyl)pyrimidin-2-amine] | 5 to 10
7 | CCc1cc2c(cc1Nc1ncc(C(F)(F)F)c(-c3cc4c(s3)C(=O)NCCS4(=O)=O)n1)CCN(C)C2 [Example 146, 7-(2-((7-ethyl-2-methyl-1,2,3,4-tetrahydroisoquinolin-6-yl)amino)-5-(trifluoromethyl)pyrimidin-4-yl)-3,4-dihydrothieno[2,3-f][1,4]thiazepin-5(2H)-one 1,1-dioxide] | ≤ 5
8 | O=C1c2sc(-c3nc(Nc4cc5c(cc4Cl)CCNC5)ncc3C(F)(F)F)cc2S(=O)(=O)CCN1C1CCC1 [Example 202, 7-(2-((6-chloro-1,2,3,4-tetrahydroisoquinolin-7-yl)amino)-5-(trifluoromethyl)pyrimidin-4-yl)-4-cyclobutyl-3,4-dihydrothieno[2,3-f][1,4]thiazepin-5(2H)-one 1,1-dioxide] | ≤ 5
9 | O=C1c2sc(-c3nc(Nc4cc5c(cc4Cl)CCNC5)ncc3C(F)(F)F)cc2S(=O)(=O)CCN1C1CC1 [Example 201, 7-(2-((6-chloro-1,2,3,4-tetrahydroisoquinolin-7-yl)amino)-5-(trifluoromethyl)pyrimidin-4-yl)-4-cyclopropyl-3,4-dihydrothieno[2,3-f][1,4]thiazepin-5(2H)-one 1,1-dioxide] | ≤ 5
10 | O=C1c2sc(-c3nc(Nc4ccc(C5CCN(CC6COC6)CC5)cc4C4CC4)ncc3C(F)(F)F)cc2S(=O)(=O)CCN1C1CC1 [Example 254, 4-cyclopropyl-7-(2-((2-cyclopropyl-4-(1-(oxetan-3-ylmethyl)piperidin-4-yl)phenyl)amino)-5-(trifluoromethyl)pyrimidin-4-yl)-3,4-dihydrothieno[2,3-f][1,4]thiazepin-5(2H)-one 1,1-dioxide] | ≤ 5
11 | CCc1cc2c(cc1Nc1ncc(C(F)(F)F)c(-c3cc4c(s3)C(=O)N(C3CC3)CCS4(=O)=O)n1)CCN(CCF)C2 [Example 243] | ≤ 5
12 | CN1CCS(=O)(=O)c2cc(-c3nc(Nc4cc(C5CCNCC5)ccc4Cl)ncc3C(F)(F)F)sc2C1=O [Example 149, 7-(2-((2-chloro-5-(piperidin-4-yl)phenyl)amino)-5-(trifluoromethyl)pyrimidin-4-yl)-4-methyl-3,4-dihydrothieno[2,3-f][1,4]thiazepin-5(2H)-one 1,1-dioxide] | 10 to 50
13 | CN1CCS(=O)(=O)c2cc(-c3nc(Nc4cc5c(cc4C4CC4)CCNC5)ncc3C(F)(F)F)sc2C1=O [Example 231, 7-(2-((6-cyclopropyl-1,2,3,4-tetrahydroisoquinolin-7-yl)amino)-5-(trifluoromethyl)pyrimidin-4-yl)-4-methyl-3,4-dihydrothieno[2,3-f][1,4]thiazepin-5(2H)-one 1,1-dioxide] | ≤ 5

Continued, values first:

Row | IC50 [nM] | SMILES
14 | ≤ 5 | CCc1cc2c(cc1Nc1ncc(C(F)(F)F)c(-c3cc4c(s3)C(=O)N(CC(F)(F)F)CCS4(=O)=O)n1)CNCC2 [Example 258, 7-(2-((6-ethyl-1,2,3,4-tetrahydroisoquinolin-7-yl)amino)-5-(trifluoromethyl)pyrimidin-4-yl)-4-(2,2,2-trifluoroethyl)-3,4-dihydrothieno[2,3-f][1,4]thiazepin-5(2H)-one 1,1-dioxide]
15 | ≤ 5 | CC(C)c1cc2c(cc1Nc1ncc(C(F)(F)F)c(-c3cc4c(s3)C(=O)N(C3CC3)CCS4(=O)=O)n1)CCN(CC1CC1)C2 [Example 268, 4-cyclopropyl-7-(2-((2-(cyclopropylmethyl)-7-isopropyl-1,2,3,4-tetrahydroisoquinolin-6-yl)amino)-5-(trifluoromethyl)pyrimidin-4-yl)-3,4-dihydrothieno[2,3-f][1,4]thiazepin-5(2H)-one 1,1-dioxide]
16 | 10 to 50 | CC(C)(F)CN1CCc2cc(Nc3ncc(C(F)(F)F)c(-c4cc5c(s4)C(=O)N(C4COC4)CCS5(=O)=O)n3)c(C3CC3)cc2C1 [Example 300, 7-(2-((7-cyclopropyl-2-(2-fluoro-2-methylpropyl)-1,2,3,4-tetrahydroisoquinolin-6-yl)amino)-5-(trifluoromethyl)pyrimidin-4-yl)-4-(oxetan-3-yl)-3,4-dihydrothieno[2,3-f][1,4]thiazepin-5(2H)-one 1,1-dioxide]
17 | ≤ 5 | CCc1cc(N2CCN(C)[C@@H](C)C2)ccc1Nc1ncc(C(F)(F)F)c(-c2cc3c(s2)C(=O)N(C2COC2)CCS3(=O)=O)n1 [Example 362, (S)-7-(2-((4-(3,4-dimethylpiperazin-1-yl)-2-ethylphenyl)amino)-5-(trifluoromethyl)pyrimidin-4-yl)-4-(oxetan-3-yl)-3,4-dihydrothieno[2,3-f][1,4]thiazepin-5(2H)-one 1,1-dioxide]
18 | ≤ 5 | CCc1cc(N2C[C@@H](C)N(C)[C@@H](C)C2)ccc1Nc1ncc(C(F)(F)F)c(-c2cc3c(s2)C(=O)N(C2CC2)CCS3(=O)=O)n1 [Example 367, 4-cyclopropyl-7-(2-((2-ethyl-4-((3S,5R)-3,4,5-trimethylpiperazin-1-yl)phenyl)amino)-5-(trifluoromethyl)pyrimidin-4-yl)-3,4-dihydrothieno[2,3-f][1,4]thiazepin-5(2H)-one 1,1-dioxide]
19 | ≤ 5 | C[C@@H]1CN(c2ccc(Nc3ncc(C(F)(F)F)c(-c4cc5c(s4)C(=O)N(C4CC4)CCS5(=O)=O)n3)c(C3CC3)c2)CCN1C [Example 309, (R)-4-cyclopropyl-7-(2-((2-cyclopropyl-4-(3,4-dimethylpiperazin-1-yl)phenyl)amino)-5-(trifluoromethyl)pyrimidin-4-yl)-3,4-dihydrothieno[2,3-f][1,4]thiazepin-5(2H)-one 1,1-dioxide]
20 | ≤ 5 | C[C@H]1CN(c2ccc(Nc3ncc(C(F)(F)F)c(-c4cc5c(s4)C(=O)N(C4COC4)CCS5(=O)=O)n3)c(C3CC3)c2)CCN1 [Example 341, (S)-7-(2-((2-Cyclopropyl-4-(3-methylpiperazin-1-yl)phenyl)amino)-5-(trifluoromethyl)pyrimidin-4-yl)-4-(oxetan-3-yl)-3,4-dihydrothieno[2,3-f][1,4]thiazepin-5(2H)-one 1,1-dioxide]
21 | ≤ 5 | O=C1c2sc(-c3nc(Nc4cc5c(cc4C4CC4)CN(CC4COC4)CC5)ncc3C(F)(F)F)cc2S(=O)(=O)CCN1C1COC1 [Example 257, 7-(2-((7-cyclopropyl-2-(oxetan-3-ylmethyl)-1,2,3,4-tetrahydroisoquinolin-6-yl)amino)-5-(trifluoromethyl)pyrimidin-4-yl)-4-(oxetan-3-yl)-3,4-dihydrothieno[2,3-f][1,4]thiazepin-5(2H)-one 1,1-dioxide]
22 | ≤ 5 | Cc1cnc(Nc2cc3c(cc2Cl)CNCC3)nc1-c1cc2c(s1)C(=O)N(C)CCS2(=O)=O [Example 259, 7-(2-((7-chloro-1,2,3,4-tetrahydroisoquinolin-6-yl)amino)-5-methylpyrimidin-4-yl)-4-methyl-3,4-dihydrothieno[2,3-f][1,4]thiazepin-5(2H)-one 1,1-dioxide]
